The target of test [1] is T1, MLKL (Homo sapiens, UniProt Q8NB16).
T1 sequence (Q8NB16 1-471): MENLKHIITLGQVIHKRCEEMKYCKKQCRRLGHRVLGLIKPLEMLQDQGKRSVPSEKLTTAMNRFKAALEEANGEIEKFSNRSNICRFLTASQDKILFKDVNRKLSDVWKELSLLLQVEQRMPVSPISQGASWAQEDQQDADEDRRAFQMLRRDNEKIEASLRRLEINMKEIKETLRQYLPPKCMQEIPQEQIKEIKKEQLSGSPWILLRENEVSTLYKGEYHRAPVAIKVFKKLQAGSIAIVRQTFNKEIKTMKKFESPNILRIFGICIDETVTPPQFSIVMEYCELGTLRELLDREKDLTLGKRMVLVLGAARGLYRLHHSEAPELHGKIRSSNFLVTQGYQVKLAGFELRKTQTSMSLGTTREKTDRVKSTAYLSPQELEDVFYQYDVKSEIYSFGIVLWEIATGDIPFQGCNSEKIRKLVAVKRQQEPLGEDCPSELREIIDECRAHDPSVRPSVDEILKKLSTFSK
The test can be described thus: Measurement of binding affinity with MLKL receptor (competitive binding assay, Kd). Set-up: made in house; host or cells: HEK 293 cell line (T7 phage in E. coli BL21-derived host is also described). Put shortly:
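HEK 293-expressed, DNA-tagged MLKL; ligand beads blocked with biotin and SeaBlock/1% BSA/0.05% Tween 20/1 mM DTT buffer. Cpd from 111× DMSO stock, 0.9% DMSO final. Eluted kinase by qPCR → Kd.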

Test [2] addresses T1, MLKL. Briefly: MLKL degradation assay in HepG2 cell line (western blot). Type of test: cell-based. More on the design: endogenous in cells; host or cells: HepG2 or HaCaT. The conditions noted are these: cell line not given; for Degradation assay (Degradation %) 1 μM: compound 1 μM; for Degradation assay (Degradation %) 10 μM: compound 10 μM. The method in brief:
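HepG2 cells were treated 20-24 h at 37 °C with compound at 1 or 10 μM final. RIPA lysates were normalized by BCA, and 10-15 μg protein per lane was resolved by SDS-PAGE. MLKL was detected by western blot with chemiluminescence.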
Background: Immunoblotting shows a protein as a band on a membrane.

For the next test, the system named is FADD−/− Jurkat cells. Briefly: Necroptosis inhibition assay, TNF-α-induced necroptosis (CellTiter-Glo 2.0). It is filed as cell-based, human. The conditions noted are these: TNF-α 15 ng/mL; for Necroptosis inhibition assay (Rescue %) 1 μM: compound 1 μM; for Necroptosis inhibition assay (Rescue %) 10 μM: compound 10 μM. The method in brief: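 FADD−/− Jurkat cells preincubated 30 min at room temperature with compound at 0.1, 1 and 10 μM final, then stimulated with TNF-α (15 ng/mL final) for 20–24 h at 37 °C, 5% CO2. Viability read as ATP luminescence; cytotoxicity and necroptosis inhibition rate calculated from luminescence values.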
(In general: In ATP-based viability assays light output follows the ATP content of the culture.)

pKd: −log10 of the molar value.

Usually pKd stands for the negative decadic logarithm of the Kd, by convention in mol/L. A high value points to a small Kd. `Nc1ncc(-c2cnn(C3CCN(C(=O)CCC4CCN(C(=O)C5CCN(c6ccc7nnn(C8CCC(=O)NC8=O)c(=O)c7c6)CC5)CC4)CC3)c2)nc1C(=O)O[C@@H](C(=O)Nc1ccc(F)cc1)c1ccccc1` (stereo partly drawn) [TDH-436, (R)-2-((4-fluorophenyl)amino)-2-oxo-1-phenylethyl 3-amino-6-(1-(1-(3-(1-(1-(3-(2,6-dioxopiperidin-3-yl)-4-oxo-3,4-dihydrobenzo[d][1,2,3]triazin-6-yl)piperidine-4-carbonyl)piperidin-4-yl)propanoyl)piperidin-4-yl)-1H-pyrazol-4-yl)pyrazine-2-carboxylate]: the pKd on MLKL [1] is 8.51. On MLKL [2], the “Degradation assay (Degradation %) 1 μM” value was 85.98% and the “Degradation assay (Degradation %) 10 μM” value turned out to be 71.25%. In the test on FADD−/− Jurkat cells (FADD−/− Jurkat cells), the “Necroptosis inhibition assay (Rescue %) 1 μM” value came to 41.81% and the “Necroptosis inhibition assay (Rescue %) 10 μM” value is 21.38%.

With `Nc1ncc(-c2cnn(C3CCN(CCC4CCN(C(=O)CC5CCN(c6ccc7c(c6)C(=O)N(C6CCC(=O)NC6=O)C7=O)CC5)CC4)CC3)c2)nc1C(=O)O[C@@H](C(=O)Nc1ccc(F)cc1)c1ccccc1` (stereo partly drawn) [TDH-367, (R)-2-((4-fluorophenyl)amino)-2-oxo-1-phenylethyl 3-amino-6-(1-(1-(2-(1-(2-(1-(2-(2,6-dioxopiperidin-3-yl)-1,3-dioxoisoindolin-5-yl)piperidin-4-yl)acetyl)piperidin-4-yl)ethyl)piperidin-4-yl)-1H-pyrazol-4-yl)pyrazine-2-carboxylate], the pKd on MLKL [1] is 9.09. For the same compound, at MLKL [2], the “Degradation assay (Degradation %) 1 μM” value is 84.28% and the “Degradation assay (Degradation %) 10 μM” value was 80.64%. Besides, in the test with FADD−/− Jurkat cells, the “Necroptosis inhibition assay (Rescue %) 1 μM” value was 36.86% and the “Necroptosis inhibition assay (Rescue %) 10 μM” value was 21.34%.

Compound `Nc1ncc(-c2cnn(C3CCN(CCCN4CCN(C(=O)c5ccc6c(c5)CN(C5CCC(=O)NC5=O)C6=O)CC4)CC3)c2)nc1C(=O)O[C@@H](C(=O)Nc1ccc(F)cc1)c1ccccc1` (stereo partly drawn) [TDH-530, (R)-2-((4-fluorophenyl)amino)-2-oxo-1-phenylethyl 3-amino-6-(1-(1-(3-(4-(2-(2,6-dioxopiperidin-3-yl)-1-oxoisoindoline-5-carbonyl)piperazin-1-yl)propyl)piperidin-4-yl)-1H-pyrazol-4-yl)pyrazine-2-carboxylate] gave a negative-log Kd (pKd) on MLKL [1] of 9.68. Further, on MLKL [2], the “Degradation assay (Degradation %) 1 μM” value stood at 54.30% and the “Degradation assay (Degradation %) 10 μM” value amounted to 61.10%. In the test on FADD−/− Jurkat cells (FADD−/− Jurkat cells), the “Necroptosis inhibition assay (Rescue %) 1 μM” value is given as 29.18% and the “Necroptosis inhibition assay (Rescue %) 10 μM” value turned out to be 30.78%.

In turn, `Nc1ncc(-c2cnn(C3CCN(C(=O)COC4CCN(C(=O)CNc5ccc6c(c5)C(=O)N(C5CCC(=O)NC5=O)C6=O)CC4)CC3)c2)nc1C(=O)O[C@@H](C(=O)Nc1ccc(F)cc1)c1ccccc1` (stereo partly drawn) [TDH-396, (R)-2-((4-fluorophenyl)amino)-2-oxo-1-phenylethyl 3-amino-6-(1-(1-(2-((1-((2-(2,6-dioxopiperidin-3-yl)-1,3-dioxoisoindolin-5-yl)glycyl)piperidin-4-yl)oxy)acetyl)piperidin-4-yl)-1H-pyrazol-4-yl)pyrazine-2-carboxylate] had a pKd on MLKL [1] of 8.38. Also, at MLKL [2], the “Degradation assay (Degradation %) 1 μM” value is recorded as 3.42% and the “Degradation assay (Degradation %) 10 μM” value was found to be 88.49%. Also, in the test with FADD−/− Jurkat cells, the “Necroptosis inhibition assay (Rescue %) 1 μM” value is listed as 53.20% and the “Necroptosis inhibition assay (Rescue %) 10 μM” value turned out to be 46.28%.

Turning to `Nc1ncc(-c2cnn(C3CCN(CCC4CCN(C(=O)CCc5cccc6c5C(=O)N(C5CCC(=O)NC5=O)C6=O)CC4)CC3)c2)nc1C(=O)O[C@@H](C(=O)Nc1ccc(F)cc1)c1ccccc1` (stereo partly drawn) [TDH-376, (R)-2-((4-fluorophenyl)amino)-2-oxo-1-phenylethyl 3-amino-6-(1-(1-(2-(1-(3-(2-(2,6-dioxopiperidin-3-yl)-1,3-dioxoisoindolin-4-yl)propanoyl)piperidin-4-yl)ethyl)piperidin-4-yl)-1H-pyrazol-4-yl)pyrazine-2-carboxylate], on MLKL [1], the pKd was 9.27. Besides, on MLKL [2], the “Degradation assay (Degradation %) 1 μM” value came out at 93.13% and the “Degradation assay (Degradation %) 10 μM” value was 86.31%. Moreover, in the test with FADD−/− Jurkat cells, the “Necroptosis inhibition assay (Rescue %) 1 μM” value is on record as 76.20% and the “Necroptosis inhibition assay (Rescue %) 10 μM” value was 30.33%.

In turn, `Nc1ncc(-c2cnn(C3CCN(CCC4CCN(c5cccc6nnn(C7CCC(=O)NC7=O)c(=O)c56)CC4)CC3)c2)nc1C(=O)OC(C(=O)Nc1ccc(F)cc1)c1ccccc1` (centres unmarked) [TDH-294, 2-((4-fluorophenyl)amino)-2-oxo-1-phenylethyl 3-amino-6-(1-(1-(2-(1-(3-(2,6-dioxopiperidin-3-yl)-4-oxo-3,4-dihydrobenzo[d][1,2,3]triazin-5-yl)piperidin-4-yl)ethyl)piperidin-4-yl)-1H-pyrazol-4-yl)pyrazine-2-carboxylate] gave a pKd on MLKL [1] of 8.33. At MLKL [2], the “Degradation assay (Degradation %) 1 μM” value is 25.53% and the “Degradation assay (Degradation %) 10 μM” value is reported as 23.63%. In the test with FADD−/− Jurkat cells, the “Necroptosis inhibition assay (Rescue %) 1 μM” value is reported as 67.12% and the “Necroptosis inhibition assay (Rescue %) 10 μM” value is 33.24%.

At MLKL [1], `Nc1ncc(-c2cnn(C3CCN(CCCN4CC5CC4CN5C(=O)CNc4ccc5c(c4)C(=O)N(C4CCC(=O)NC4=O)C5=O)CC3)c2)nc1C(=O)O[C@@H](C(=O)Nc1ccc(F)cc1)c1ccccc1` (stereo partly drawn) [TDH-454, (R)-2-((4-fluorophenyl)amino)-2-oxo-1-phenylethyl 3-amino-6-(1-(1-(3-(5-((2-(2,6-dioxopiperidin-3-yl)-1,3-dioxoisoindolin-5-yl)glycyl)-2,5-diazabicyclo[2.2.1]heptan-2-yl)propyl)piperidin-4-yl)-1H-pyrazol-4-yl)pyrazine-2-carboxylate] gave a pKd of 8.70. For the same compound, on MLKL [2], the “Degradation assay (Degradation %) 1 μM” value came to 87.16% and the “Degradation assay (Degradation %) 10 μM” value was 90.47%. In the test with FADD−/− Jurkat cells (FADD−/− Jurkat cells), the “Necroptosis inhibition assay (Rescue %) 1 μM” value is 65.44% and the “Necroptosis inhibition assay (Rescue %) 10 μM” value stood at 39.99%.

Compound `Nc1ncc(-c2cnn(C3CCN(CCCN4CCN(C(=O)CNc5cccc6c5C(=O)N(C5CCC(=O)NC5=O)C6=O)CC4)CC3)c2)nc1C(=O)OC(C(=O)Nc1ccc(F)cc1)c1ccccc1` (centres unmarked) [TDH-241, 2-((4-fluorophenyl)amino)-2-oxo-1-phenylethyl 3-amino-6-(1-(1-(3-(4-((2-(2,6-dioxopiperidin-3-yl)-1,3-dioxoisoindolin-4-yl)glycyl)piperazin-1-yl)propyl)piperidin-4-yl)-1H-pyrazol-4-yl)pyrazine-2-carboxylate] had a negative logarithm of the Kd (pKd) at MLKL [1] of 8.54. Besides, on MLKL [2], the “Degradation assay (Degradation %) 1 μM” value was 64.55% and the “Degradation assay (Degradation %) 10 μM” value was 64.03%. In addition, in the test on FADD−/− Jurkat cells, the “Necroptosis inhibition assay (Rescue %) 1 μM” value is listed as 50.09% and the “Necroptosis inhibition assay (Rescue %) 10 μM” value was 28.85%.

With `Nc1ncc(-c2cnn(C3CCN(C(=O)CC4CCN(C(=O)CNc5ccc6c(c5)C(=O)N(C5CCC(=O)NC5=O)C6=O)CC4)CC3)c2)nc1C(=O)O[C@@H](C(=O)Nc1ccc(F)cc1)c1ccccc1` (stereo partly drawn) [TDH-340, (R)-2-((4-fluorophenyl)amino)-2-oxo-1-phenylethyl 3-amino-6-(1-(1-(2-(1-((2-(2,6-dioxopiperidin-3-yl)-1,3-dioxoisoindolin-5-yl)glycyl)piperidin-4-yl)acetyl)piperidin-4-yl)-1H-pyrazol-4-yl)pyrazine-2-carboxylate], at MLKL [1], the pKd was 8.12. At MLKL [2], the “Degradation assay (Degradation %) 1 μM” value is reported as 73.39% and the “Degradation assay (Degradation %) 10 μM” value was 73.33%. In the test on FADD−/− Jurkat cells, the “Necroptosis inhibition assay (Rescue %) 1 μM” value worked out at 42.94% and the “Necroptosis inhibition assay (Rescue %) 10 μM” value is reported as 43.81%.

`Nc1ncc(-c2ccc(N3CCN(CC4CCN(C(=O)COc5cccc6c5C(=O)N(C5CCC(=O)NC5=O)C6=O)CC4)CC3)nc2)nc1C(=O)OC(C(=O)Nc1ccc(F)cc1)c1ccccc1` (centres unmarked) [TDH-255, 2-((4-fluorophenyl)amino)-2-oxo-1-phenylethyl 3-amino-6-(6-(4-((1-(2-((2-(2,6-dioxopiperidin-3-yl)-1,3-dioxoisoindolin-4-yl)oxy)acetyl)piperidin-4-yl)methyl)piperazin-1-yl)pyridin-3-yl)pyrazine-2-carboxylate] showed a pKd at MLKL [1] of 7.39. Also, at MLKL [2], the “Degradation assay (Degradation %) 1 μM” value worked out at 35.59% and the “Degradation assay (Degradation %) 10 μM” value worked out at 34.35%. In addition, in the test on FADD−/− Jurkat cells, the “Necroptosis inhibition assay (Rescue %) 1 μM” value is listed as 46.68% and the “Necroptosis inhibition assay (Rescue %) 10 μM” value worked out at 32.39%.

For the origin of these results see US20240252488A1 (KOREA RESEARCH INSTITUTE OF CHEMICAL TECHNOLOGY, priority 2020, published 2024).
